Measured values taken from patent US20220143042A1, “FUSED GLYCOSIDASE INHIBITORS” (Asceneuron SA, priority 2019, published 2022).

Biological target: T1, His-Tagged hOGA (Homo sapiens, UniProt O60502)
T1 sequence (O60502 1-916): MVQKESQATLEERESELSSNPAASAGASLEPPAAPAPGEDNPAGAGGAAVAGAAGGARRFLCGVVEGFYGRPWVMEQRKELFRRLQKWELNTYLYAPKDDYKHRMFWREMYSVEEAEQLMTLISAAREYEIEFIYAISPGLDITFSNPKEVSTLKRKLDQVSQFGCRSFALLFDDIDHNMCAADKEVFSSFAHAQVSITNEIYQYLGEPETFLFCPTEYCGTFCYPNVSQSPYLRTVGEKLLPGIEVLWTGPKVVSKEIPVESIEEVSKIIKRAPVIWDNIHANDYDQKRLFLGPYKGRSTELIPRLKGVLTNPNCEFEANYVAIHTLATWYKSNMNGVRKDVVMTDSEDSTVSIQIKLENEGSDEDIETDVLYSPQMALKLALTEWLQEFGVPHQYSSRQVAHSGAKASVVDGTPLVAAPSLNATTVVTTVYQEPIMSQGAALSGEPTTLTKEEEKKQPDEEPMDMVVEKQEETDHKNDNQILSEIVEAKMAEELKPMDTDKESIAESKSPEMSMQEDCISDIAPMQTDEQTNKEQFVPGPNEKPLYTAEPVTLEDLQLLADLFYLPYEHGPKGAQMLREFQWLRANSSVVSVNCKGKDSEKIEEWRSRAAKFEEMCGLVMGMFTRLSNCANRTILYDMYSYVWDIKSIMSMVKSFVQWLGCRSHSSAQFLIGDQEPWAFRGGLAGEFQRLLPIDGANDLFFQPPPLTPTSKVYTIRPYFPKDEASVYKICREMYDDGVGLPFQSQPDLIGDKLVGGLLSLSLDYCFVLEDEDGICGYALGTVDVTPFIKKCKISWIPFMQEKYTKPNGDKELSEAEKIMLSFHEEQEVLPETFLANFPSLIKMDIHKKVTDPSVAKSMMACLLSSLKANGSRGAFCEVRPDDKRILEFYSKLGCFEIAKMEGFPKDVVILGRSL
Test: Human O-GlcNAcase enzyme inhibition assay
Format: biochemical
Conditions: OGA enzyme inhibition assay; FL-GlcNAc substrate, 60 min at room temperature, pH 6.5
Procedure: EXAMPLE B01: HUMAN O-GLCNACASE ENZYME INHIBITION ASSAY
5 μl of the appropriate concentration of a solution of inhibitor in Mcllvaine's Buffer (pH 6.5) in 2% DMSO (for a dose response curve calculation) is added into each well of a 384-well plate (Greiner, 781900). Then, 20 nM of His-Tagged hOGA and 10 μM of FL-GlcNAc (Fluorescein mono-beta-D-(2-deoxy-2-N-acetyl) glucopyranoside; Marker Gene Technologies Inc, M1485) were added to the 384-well plate for a final volume of 20 μl. After incubation for 60 min at room temperature, the reaction was terminated by the addition of 10 μL of stop buffer (200 mM glycine, pH 10.75). The level of fluorescence (λexc 485 nm; (λemm 520 nm) was read on a PHERAstar machine. The amount of fluorescence measured was plotted against the concentration of inhibitor to produce a sigmoidal dose response curve to calculate an IC50. All individual data was corrected by subtraction of the background (Thiamet 3 uM=100% inhibition) whilst 0.5% DMSO was considered as the control value (no inhibition).

Structure (SMILES) | IC50 [nM]
CC(=O)Nc1ncc(CN2CCc3nc(C)sc3CC2)s1 (racemic) [Example 26, N-(5-((2-METHYL-4,5,7,8-TETRAHYDRO-6H-THIAZOLO[4,5-D]AZEPIN-6-YL)METHYL)THIAZOL-2-YL)ACETAMIDE] | < 50
Cc1nc2c(s1)CCN(C(C)c1ccc3c(c1)OCC3)CC2 (racemic) [Example 20, 6-(1-(2,3-DIHYDROBENZOFURAN-6-YL)ETHYL)-2-METHYL-5,6,7,8-TETRAHYDRO-4H-THIAZOLO[4,5-D]AZEPINE] | < 50
CC(c1ccc2scnc2c1)N1CCc2cn(C)nc2CC1 (racemic) [Example 1, 5-(1-(2-METHYL-4,5,7,8-TETRAHYDROPYRAZOLO[3,4-D]AZEPIN-6(2H)-YL)ETHYL)BENZO[D]THIAZOLE] | < 50
CC(=O)Nc1nc2c(s1)CCN(C(C)c1ccc3scnc3c1)CC2 (single isomer, unassigned) [Example 163] | 200 to 1000
CC(c1ccc2scnc2c1)N1CCCc2nn(C)cc2C1 (racemic) [Example 165, 5-(1-(2-METHYL-2,6,7,8-TETRAHYDROPYRAZOLO[4,3-C]AZEPIN-5(4H)-YL)ETHYL)BENZO[D]THIAZOLE] | 200 to 1000
CC(=O)Nc1nc2c(s1)CCN(C(C)c1ccc3scnc3c1)CC2 (single isomer, unassigned) [Example 162] | < 50
CC(=O)Nc1nc2c(s1)CCN(C(C)c1ccc3scnc3c1)CC2 (racemic) [Example 16] | < 50
CC(c1ccc2scnc2c1)N1CCc2c(-c3ccccc3)nn(C)c2CC1 (racemic) [Example 47, 5-(1-(1-METHYL-3-PHENYL-4,5,7,8-TETRAHYDROPYRAZOLO[3,4-D]AZEPIN-6(1H)-YL)ETHYL)BENZO[D]THIAZOLE] | < 50
CC(=O)Nc1nc2c(s1)CN(C(C)c1ccc3scnc3c1)CCC2 (racemic) [Example 152] | 200 to 1000
CC(c1ccc2scnc2c1)N1CCc2nc[nH]c2CC1 (racemic) [Example 161] | 50 to 200
CC(=O)Nc1ncc(CN2CCc3cn(C)nc3CC2)s1 (racemic) [Example 23, N-(5-((2-METHYL-4,5,7,8-TETRAHYDROPYRAZOLO[3,4-D]AZEPIN-6(2H)-YL)METHYL)THIAZOL-2-YL)ACETAMIDE] | < 50
CC(c1ccc2scnc2c1)N1CCc2nn(C)c(-c3ccccc3)c2CC1 (racemic) [Example 46, 5-(1-(2-METHYL-3-PHENYL-4,5,7,8-TETRAHYDROPYRAZOLO[3,4-D]AZEPIN-6(2H)-YL)ETHYL)BENZO[D]THIAZOLE] | < 50
CC(=O)Nc1ncc(CN2CCc3nncn3CC2)s1 (racemic) [Example 154] | < 50
CC(=O)Nc1ncc(CN2CCc3nc(N)sc3CC2)s1 (racemic) [Example 151, N-(5-((2-AMINO-4,5,7,8-TETRAHYDRO-6H-THIAZOLO[4,5-D]AZEPIN-6-YL)METHYL)THIAZOL-2-YL)ACETAMIDE] | 50 to 200
Cc1nc2c(s1)CCN(C(C)c1ccc3scnc3c1)CC2 (racemic) [Example 14, 6-(1-(BENZO[D]THIAZOL-5-YL)ETHYL)-2-METHYL-5,6,7,8-TETRAHYDRO-4H-THIAZOLO[4,5-D]AZEPINE] | < 50
CC(c1ccc2scnc2c1)N1CCc2c([Si](C)(C)C)nn(C)c2CC1 (racemic) [Example 48, 5-(1-(1-METHYL-3-(TRIMETHYLSILYL)-4,5,7,8-TETRAHYDROPYRAZOLO[3,4-D]AZEPIN-6(1H)-YL)ETHYL)BENZO[D]THIAZOLE] | < 50
